Measured values reported in US20040109845A1, “Method for inhibiting articular cartilage matrix calcification” (priority 2001, published 2004).
“Also recorded” adds a separate entry of the source.

How the values were obtained:
[1] = system: TGase activity (tTGase and Factor XIIIa) in meniscal cells; test: TGase activity in cultured knee meniscal cells (BP incorporation into N,N-dimethylcasein); format: cell-based, human; conditions: meniscal cells, 72 hrs, IL-1 or TNFα 10 ng/ml; NMMA 10 μM or A20 transfection
Protocol: Meniscal cells were maintained in DMEM high glucose and supplemented with 10% FCS, 1% L-glutamine, 100 units/ml Penicillin and 50 μg/ml Streptomycin (Omega Scientific, Tarzana, Calif.) and cultured at 37° C. with 5% CO2. In monolayer cell culture studies involving stimulation by TGFE[…] or IL-1, the cells were placed in DMEM high glucose containing 1% FCS, 1% L-glutamine, 100 units/ml Penicillin and 50 μg/ml Streptomycin. In all other studies, the cells were cultured in complete medium (as described above). Only primary or first passage meniscal cells were studied.
TGase activity was measured by modifications to a previously described method (35). Specifically, we coated 96 well ImmunoModule plates (Nunc, Rochester, N.Y.) with 200 μl of 20 mg/ml N,N-dimethylcasein for 1 hr at 23° C. The N,N-dimethylcasein was removed and nonspecific protein binding was blocked by adding 3% BSA in 100 mM Tris, pH 8.5, 150 mM NaCl, 0.05% Tween-20 (TBST) to each well for an additional 1 hr at 23° C. Then, aliquots of 5 μg of total cellular protein from meniscal or TC28 cells that had been lysed and sonicated (in 5 mM Tris HCl, 0.25 M sucrose, 0.2 mM MgSO4, 2 mM DTT, 0.4 mM PMSF, 0.4% Triton X100, pH 7.5), were added to the plate in triplicate. To measure TGase in extracts of whole menisci, 50 mg dry weight of tissue from the central zone of each medial meniscus was used as the source (after solubilization and sonication) for aliquots of 5 μg of soluble protein. Fifty μl of solution A (100 mM Tris, pH 8.5 and 20 mM CaCl2) was added to all samples for TGase assay, followed by the addition of 50 μl of solution B (100 mM Tris, pH 8.5, 40 mM DTT and freshly added 2 mM 5-(Biotinamido) pentylamine (BP)). The plates were incubated for 1 hr at 37° C. The wells were washed once with TBST containing 1 mM EDTA and then three times with TBST. One hundred μl of a 1:500 dilution of streptavidin-AP in 3% BSA/TBST was added to each well for 1 hr at 23° C. The wells were washed twice with TBST, and 200 μl of solution C (100 mM Tris, pH 9.8, mM NaCl, 5 mM MgCl2, 1 mg/ml of freshly added p-nitrophenylphosphate) was added to each well. Readings at OD410 were taken over 15 minutes. Purified guinea pig liver TGase (Sigma) was used to prepare a standard curve. TGase activity was designated as the amount of BP incorporated into casein (per μg cellular DNA, determined chromogenically following precipitation in perchlorate (28), or, where indicated, per μg protein, determined as previously described (28)).
To directly induce expression of each TGase in meniscal cells, 5×10^5 primary cells were plated in 60 mm dishes and allowed to adhere overnight. We modified (28) the manufacturer's protocol for the Lipofectamine Plus kit (Life Technologies, Grand Island, N.Y.). To optimize the transfection of meniscal cells, we added 2.0 ml of serum-free DMEM/F12 containing 0.00015% digitonin to washed cells and incubated for 3 min at 23° C. Then, media was removed, and cells transfected at 37° C. for 7 hrs, followed by removal of the media and addition of complete DMEM high glucose medium. Transfection of each TGase into TC28 cells was done by the same procedure, with the exception that the digitonin permeabilization step was omitted.

[2] = system: NO release by meniscal cells; test: NO release by cultured meniscal cells (Greiss reaction); format: cell-based, human; conditions: 72 hrs, IL-1 or TNFα 10 ng/ml, NMMA 10 μM or A20 transfection
Protocol: NO release by 3×10^5 meniscal cells, which were plated and stimulated with TNFα (10 ng/ml) or IL-1 (10 ng/ml), with or without 10 μM NMMA (FIG. 8A), for 72 hrs was studied. Conditioned media were collected and 50 μl aliquots analyzed for NO release using the Greiss Reaction, with results expressed as μmoles released per μg DNA. […] After 72 hrs of incubation with TNFα or IL-1, the conditioned media were collected from the cultured, transfected cells and analyzed in triplicate for NO release, as above. Data pooled from 4 normal donors studied in triplicate for FIGS. 8A and 8B. *p<0.05.
PPi was determined by differential adsorption on activated charcoal of UDP-D-[6-^3H] glucose (Amersham, Chicago, Ill.) from the reaction product 6-phospho [6-^3H] gluconate (28). Units of NTPPPH and AP were designated as micromoles of substrate hydrolyzed per hour (per μg DNA in each sample) (28). NO release by cultured meniscal cells was measured using the Greiss reaction (33). Concentrations or specific activities of PPi, NTPPPH, and AP were equalized for cellular DNA concentrations in each well.

CNC(=N)NCCC[C@H](N)C(=O)O [NMMA, reference compound]
Effect on IL-1 and TNFα-induced TGase activity [1]: blocked the ability of both IL-1 and TNFα to induce TGase activity; also recorded: attenuated LL-1 and TNFα-induced TGase activity | Effect on IL-1 and TNFα-induced NO release [2]: attenuated IL-1 and TNFα-induced NO release; also recorded: suppresses IL-1 and TNFα-induced NO release
